Reference: patent publication US20030236246A1, “Method for decreasing capillary permeability in the retina” (priority 2002, published 2003)

Tests used:
C57B/J6 mice = assay: BRB breakdown in mice after intravitreal VEGF, quantitated with [3H]-mannitol tracer; format: in vivo
Source text: Intraperitoneally administered radiolabeled tracer can be used to quantitate BRB breakdown in mice exposed to vascular endothelial growth factor (VEGF). This technique is particularly advantageous with neonatal mice because of the technical difficulty involved with intravascular injections. Also, the comparison of retinas from injected and control eyes to tissues without a blood-tissue barrier corrects for variations in the amount of isotope injected or absorbed into the circulation.
Ten six- to seven-week-old C57B/J6 mice (Jackson Labs, Bar Harbor, Me.) are weighed to determine the proper dosage of anesthesia and tracer required. Mice are anesthetized with a solution containing 25 mg/kg ketamine (Ketaset; Fort Dodge Animal Health, Fort Dodge, Iowa) and 4 mg/kg rompun (Tranquived; Vedco, St. Joseph, Mo.) diluted 1:10 in saline prior to injection. Five mice are subjected to gavage with 50 mg/kg N-benzoyl staurosporine for three days prior to intravitreal administration of VEGF; the other five mice are subjected to gavage with vehicle.
Tropicamide (1%) is used to dilate the pupils of anesthetized mice. Under a dissecting microscope, a Harvard injector (PLI 100) is used with a glass pipet pulled to a diameter of 13-20 μm to inject 1 μl of saline containing VEGF (R&D Systems, Minneapolis, Minn.). The eyes are entered posterior to the limbus, directing the pipet toward the optic nerve. The solution is then deposited just in front of the retina without inflicting any damage to the lens. […]
One ml NCSII (Amersham, Chicago, Ill.) solubilizing solution is added to each vial and the vials are incubated overnight in a 50° C. water bath. […] The specimens are counted on a Wallac 1409 Liquid Scintillation Counter (Gaithersburg, :Md.).
The counts per mg tissue are determined for treated (with N-benzoyl staurosporine) and untreated retina, lung, and kidney. Ratios of these values for treated or untreated retina/lung or kidney and for lung/kidney are calculated. […]

C57BL/6J mice = assay: PG-induced breakdown of the BRB in mice after intraocular injection of a vasopermeability factor; format: in vivo; conditions: 50 mg/kg/day by gavage for 3 days, then intraocular PGE1 or PGE2 10^-5 M
Protocol: Six to seven week old male C57BL/6J mice are treated in accordance with the ARVO resolution on the care of animals in research. Mice are treated by gavage with vehicle or vehicle containing 50 mg/kg/day of PKC412, PTK787, SU1498, or Gleevec. After 3 days of treatment, mice are given an intraocular injection of 1 μl of vehicle containing a vasopermeability factor or vehicle alone.
Mice are anesthetized with 25 mg/kg of ketamine and 4 mg/kg of xylazine, pupils are dilated with 1% tropicamide. Intraocular injections are performed as previously described with a Harvard pump microinjection apparatus and pulled glass micropipets. Each micropipet is calibrated to deliver 1 μl of vehicle upon depression of a foot switch. […] Some mice are used for quantitative measurement of BRB breakdown using [3H]mannitol and in others leakage of albumin through retinal vessels is assessed by Western blots or immunohistochemistry.
Six or 24 hours after intraocular injections, mice are given an intraperitoneal injection of 1 μCi / gram body weight of [3H]mannitol (New England Nuclear, Boston, Mass.). […] The vials are weighed and the tissue weights are recorded. […] Radioactivity is counted with a Wallac 1409 Liquid Scintillation Counter (Gaithersburg, Md.). […]

[1] = mice, 50 mg/kg by gavage for three days before intravitreal VEGF 10^-6 M, [3H]-mannitol at 6 hours

Row | Compound | leakage of radioactive tracer out of the retinal blood vessels (C57B/J6 mice; VEGF-injected mice given 50 mg/kg N-benzoyl staurosporine by gavage for three days, compared to vehicle-gavaged VEGF-injected mice) | retina/kidney ratio (C57B/J6 mice; [1]) | retina/lung ratio (cpm per mg of retina/cpm per mg of lung) (C57B/J6 mice; [1]) | PG-induced breakdown of the BRB (C57BL/6J mice)
1 | CO[C@@H]1[C@H](N(C)C(=O)c2ccccc2)C[C@H]2O[C@]1(C)n1c3ccccc3c3c4c(c5c6ccccc6n2c5c31)C(=O)NC4 [N-benzoyl staurosporine] | significantly less leakage | 0.3881±0.0436 | 0.6326±0.0656 | reduces PG-induced breakdown of the BRB
2 | Clc1ccc(Nc2nnc(Cc3ccncc3)c3ccccc23)cc1 [PTK787, reference compound] | – | – | – | not
